Tested on: weedy target
Assay: Greenhouse Paraquat spray on weedy target
Type: in vivo
Conditions: 24 hours post spray
Excerpt: Turning to FIG. 8, recovery of replicates of plants using compositions of the present invention is shown. The control is in the upper left and the remaining plants are colonized with single Trichoderma strains, with 3 replicate plants per strain.

`C[n+]1ccc(-c2cc[n+](C)cc2)cc1.[Cl-].[Cl-]` [Paraquat, N,N′-dimethyl-4,4′-bipyridinium dichloride] was tested, and the “killing effect of the Paraquat application” value was “complete killing effect”.

From US20200345002A1, “COMPOSITIONS AND METHODS FOR INDUCING CROP CHANGES BY LEVERAGING THE EFFECTS OF AN APPLIED AGRICULTURAL CHEMICAL” (ADVANCED BIOLOGICAL MARKETING, INC., priority 2017, published 2020)
